Legend:
Liver microsome [1] = experiment: Drug metabolism in pooled human liver microsomes assessed as formation of (3-methyl-4-(2-(piperazin-1-yl)phenylthio)phenyl)methanol per mg of protein after 30 mins by Michaelis-Menten plot analysis in presence of NADPH regenerating system with NADP+; assay type: ADME; conditions: 0.5 h
Cytochrome P450 2C9 [2] = target: T1, Cytochrome P450 2C9 (Homo sapiens, UniProt P11712); experiment: Activity of human recombinant CYP2C9 expressed in microsomes isolated from human AHH-1 cells assessed as enzyme-mediated 3-(2,4-dimethylphenylthio)-4-(piperazin-1-yl)phenol formation at 8 to 50 uM after 120 mins by HPLC/MS-MS analysis in presence of NADPH regenerating system with NADP+; assay type: ADME, cell-free; conditions: 2 h
Cytochrome P450 2C19 = Cytochrome P450 2C19 (Homo sapiens, UniProt P33261); experiment: Activity of human recombinant CYP2C19 expressed in microsomes isolated from human AHH-1 cells assessed as enzyme-mediated 3-(2,4-dimethylphenylthio)-4-(piperazin-1-yl)phenol formation at 8 to 50 uM after 120 mins by HPLC/MS-MS analysis in presence of NADPH regenerating system with NADP+; assay type: ADME, cell-free; conditions: 2 h
Cytochrome P450 1A2 = target: T2, Cytochrome P450 1A2 (Homo sapiens, UniProt P05177); experiment: Activity of human recombinant CYP1A2 expressed in microsomes isolated from human AHH-1 cells assessed as enzyme-mediated 3-(2,4-dimethylphenylthio)-4-(piperazin-1-yl)phenol formation at 8 to 50 uM after 120 mins by HPLC/MS-MS analysis in presence of NADPH regenerating system with NADP+; assay type: ADME, cell-free; conditions: 2 h
T2 sequence (P05177 whole entry): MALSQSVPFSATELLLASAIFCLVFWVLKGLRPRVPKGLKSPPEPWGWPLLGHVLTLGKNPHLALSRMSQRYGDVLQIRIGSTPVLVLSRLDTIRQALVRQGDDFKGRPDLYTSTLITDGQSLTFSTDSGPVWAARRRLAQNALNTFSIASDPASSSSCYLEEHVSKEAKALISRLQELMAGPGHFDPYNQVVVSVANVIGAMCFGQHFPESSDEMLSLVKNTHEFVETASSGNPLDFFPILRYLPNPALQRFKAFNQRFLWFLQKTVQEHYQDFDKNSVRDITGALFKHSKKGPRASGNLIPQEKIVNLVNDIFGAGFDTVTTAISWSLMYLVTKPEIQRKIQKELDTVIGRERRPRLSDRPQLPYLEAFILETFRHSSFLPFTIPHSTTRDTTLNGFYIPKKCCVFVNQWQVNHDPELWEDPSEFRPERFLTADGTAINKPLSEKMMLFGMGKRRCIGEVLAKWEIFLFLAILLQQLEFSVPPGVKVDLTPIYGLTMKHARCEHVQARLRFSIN

Liver microsome [3] = experiment: Drug metabolism in phenotyped human liver microsomes assessed as formation of 4-(2-(2,4-dimethylphenylthio)phenyl)piperazin-1-ol at 8 to 50 uM after 60 mins by HPLC/MS-MS analysis in presence of NADPH regenerating system with NADP+; assay type: ADME; conditions: 1 h
Liver microsome [4] = experiment: Drug metabolism in phenotyped human liver microsomes assessed as formation of 3-(2,4-dimethylphenylthio)-4-(piperazin-1-yl)phenol at 8 to 50 uM after 60 mins by HPLC/MS-MS analysis in presence of NADPH regenerating system with NADP+; assay type: ADME; conditions: 1 h
[5] = target: T3, Flavin-containing monooxygenase 3 (Homo sapiens, UniProt P31513); experiment: (§1) Activity of human recombinant FMO3 expressed in microsomes isolated from baculovirus infected insect BTI-TN-5B1-4 cells assessed as enzyme-mediated 1-(2-(2,4-dimethylphenylsulfinyl)phenyl)piperazine formation at 8 to 50 uM after 120 mins by HPLC/MS-MS analysis in presence of NADPH regenerating system with NADP+; assay type: ADME; conditions: 2 h
T3 sequence (P31513 whole entry): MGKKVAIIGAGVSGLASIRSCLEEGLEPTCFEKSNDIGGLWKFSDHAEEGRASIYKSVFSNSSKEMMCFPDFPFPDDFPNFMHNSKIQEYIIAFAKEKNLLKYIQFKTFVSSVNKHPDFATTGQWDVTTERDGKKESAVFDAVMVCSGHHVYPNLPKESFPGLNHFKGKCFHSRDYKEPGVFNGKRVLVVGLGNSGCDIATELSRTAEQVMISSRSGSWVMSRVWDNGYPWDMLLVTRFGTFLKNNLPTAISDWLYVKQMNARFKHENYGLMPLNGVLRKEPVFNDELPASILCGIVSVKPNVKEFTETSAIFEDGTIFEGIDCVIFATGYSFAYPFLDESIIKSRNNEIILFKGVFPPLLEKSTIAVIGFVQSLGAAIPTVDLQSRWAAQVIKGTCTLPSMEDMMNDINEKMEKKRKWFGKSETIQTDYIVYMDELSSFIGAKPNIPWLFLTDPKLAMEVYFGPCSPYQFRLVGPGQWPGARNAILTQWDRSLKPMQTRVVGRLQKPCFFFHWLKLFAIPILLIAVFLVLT

[6] = target: T3, Flavin-containing monooxygenase 3; experiment: as §1, with “3-methyl-4-(2-(piperazin-1-yl)phenylthio)phenyl)methanol” for “1-(2-(2,4-dimethylphenylsulfinyl)phenyl)piperazine”; assay type: ADME; conditions: 2 h
Liver microsome [7] = experiment: Drug metabolism in pooled human liver microsomes assessed as formation of 3-(2,4-dimethylphenylthio)-4-(piperazin-1-yl)phenol at 100 uM after 30 to 180 mins by HPLC/MS-MS analysis in presence of NADPH regenerating system with NADP+; assay type: ADME
Cytochrome P450 2C9 [8] = target: T1, Cytochrome P450 2C9; experiment: Activity of human recombinant CYP2C9 expressed in microsomes isolated from human AHH-1 cells assessed as enzyme-mediated (3-methyl-4-(2-(piperazin-1-yl)phenylthio)phenyl)methanol formation at 8 to 50 uM after 120 mins by HPLC/MS-MS analysis in presence of NADPH regenerating system with NADP+; assay type: ADME, cell-free; conditions: 2 h
Cytochrome P450 2D6 = Cytochrome P450 2D6 (Homo sapiens, UniProt P10635); experiment: Activity of human recombinant CYP2D6 expressed in microsomes isolated from human AHH-1 cells assessed as enzyme-mediated 3-methyl-4-(2-(piperazin-1-yl)phenylthio)benzoic acid formation at 8 to 50 uM after 120 mins by HPLC/MS-MS analysis in presence of NADPH regenerating system with NADP+; assay type: ADME, cell-free; conditions: 2 h
Sequence of Cytochrome P450 2D6 (P10635 whole entry): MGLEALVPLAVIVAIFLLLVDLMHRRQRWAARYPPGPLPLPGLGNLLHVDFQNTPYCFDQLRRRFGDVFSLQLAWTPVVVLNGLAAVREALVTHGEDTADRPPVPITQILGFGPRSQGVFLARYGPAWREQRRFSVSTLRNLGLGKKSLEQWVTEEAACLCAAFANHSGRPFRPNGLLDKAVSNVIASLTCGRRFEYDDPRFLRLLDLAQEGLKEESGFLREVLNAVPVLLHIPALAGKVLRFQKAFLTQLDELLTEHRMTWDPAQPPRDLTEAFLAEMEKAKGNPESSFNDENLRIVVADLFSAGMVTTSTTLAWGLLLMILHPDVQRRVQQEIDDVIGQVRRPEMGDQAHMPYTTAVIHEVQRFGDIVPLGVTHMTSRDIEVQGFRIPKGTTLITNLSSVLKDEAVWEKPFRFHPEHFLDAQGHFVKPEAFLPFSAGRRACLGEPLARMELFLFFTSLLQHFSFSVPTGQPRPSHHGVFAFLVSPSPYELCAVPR

T1 sequence (P11712 whole entry): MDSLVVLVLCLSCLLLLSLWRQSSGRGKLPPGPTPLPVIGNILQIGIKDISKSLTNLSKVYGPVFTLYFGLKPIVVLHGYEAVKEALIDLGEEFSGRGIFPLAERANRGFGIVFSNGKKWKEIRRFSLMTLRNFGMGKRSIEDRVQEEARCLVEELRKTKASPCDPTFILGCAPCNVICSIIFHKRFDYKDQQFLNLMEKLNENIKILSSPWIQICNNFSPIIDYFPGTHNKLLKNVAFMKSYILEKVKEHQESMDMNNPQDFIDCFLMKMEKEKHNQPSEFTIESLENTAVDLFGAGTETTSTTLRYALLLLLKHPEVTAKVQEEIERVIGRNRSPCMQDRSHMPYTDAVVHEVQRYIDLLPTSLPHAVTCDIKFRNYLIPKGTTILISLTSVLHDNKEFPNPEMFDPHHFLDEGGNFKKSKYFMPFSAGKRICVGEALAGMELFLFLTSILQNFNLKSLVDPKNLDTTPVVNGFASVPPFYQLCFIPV
Sequence of Cytochrome P450 2C19 (P33261 whole entry): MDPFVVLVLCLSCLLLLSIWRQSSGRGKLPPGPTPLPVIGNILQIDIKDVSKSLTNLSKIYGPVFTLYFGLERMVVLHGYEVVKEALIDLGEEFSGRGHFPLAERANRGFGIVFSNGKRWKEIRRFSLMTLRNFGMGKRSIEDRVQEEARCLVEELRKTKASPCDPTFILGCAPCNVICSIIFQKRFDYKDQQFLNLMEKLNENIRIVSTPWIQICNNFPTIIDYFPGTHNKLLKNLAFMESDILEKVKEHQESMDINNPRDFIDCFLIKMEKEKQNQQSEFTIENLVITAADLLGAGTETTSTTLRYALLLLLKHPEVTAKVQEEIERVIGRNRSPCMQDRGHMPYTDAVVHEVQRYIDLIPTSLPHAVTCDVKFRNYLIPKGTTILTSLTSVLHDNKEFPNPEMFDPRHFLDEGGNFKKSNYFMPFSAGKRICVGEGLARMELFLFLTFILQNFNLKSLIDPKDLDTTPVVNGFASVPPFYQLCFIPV

Vmax(app) (Liver microsome [1]): 262 pmol/min | Drug metabolism (Cytochrome P450 2C9 [2]): metabolite_detected | Drug metabolism (Cytochrome P450 2C19): metabolite_detected | Drug metabolism (Cytochrome P450 1A2): metabolite_not_detected | Drug metabolism (Liver microsome [3]): metabolite_detected | Drug metabolism (Liver microsome [4]): metabolite_detected | Drug metabolism [5]: metabolite_not_detected | Drug metabolism [6]: metabolite_not_detected | Drug metabolism (Liver microsome [7]): metabolite_detected | Drug metabolism (Cytochrome P450 2C9 [8]): metabolite_detected | Drug metabolism (Cytochrome P450 2D6): metabolite_detected
Compound: Br.Cc1ccc(Sc2ccccc2N2CCNCC2)c(C)c1 [VORTIOXETINE HYDROBROMIDE]

— ChEMBL document CHEMBL3525899, “Identification of the cytochrome P450 and other enzymes involved in the in vitro oxidative metabolism of a novel antidepressant, Lu AA21004” (Drug Metab Dispos, 2012)
